What was measured:
Assay type in all cases: cell-based
HER2 YVMA = biological target: T1, HER2 YVMA (Homo sapiens, UniProt P04626, INS775YVMA); assay: pHER2 (ERBB2) YVMA assay (AlphaScreen Surefire, HEK cells); conditions: HEK cells expressing HER2 YVMA, phosphorylation at Tyr1221/1222, 4 h
T1 construct: expressed in transfected cells; host or cells: human HEK cells, retroviral transduction, puromycin selection, doxycycline-inducible expression
Procedure: (§1) For the assay, HEK HER2 YVMA cells were seeded in MEM medium with 10% FBS. 4 hours prior to compound addition, HER2 YVMA expression was induced using 1 μg/ml Doxycycline. […] Subsequently, 60.000 cells/well in 60 μL were added. Cells were incubated with compounds for 4 h at 37° C. […] The mixture was incubated at a temperature of 20-25° C. with shaking (700 rpm) for 20 min. After centrifugation, 4 μL of the lysate were transferred to Proxiplates. […] Plates were shaken for 1 min (1400 rpm) and incubated for 2 h at a temperature of 20-25° C. in the dark.
The results of the assay are provided as IC50 values.

EGFR wild type (WT) = biological target: T2, EGFR wild type (WT) (Homo sapiens, UniProt P00533); assay: pEGFR assay (AlphaScreen Surefire, HEK cells); conditions: HEK cells expressing EGFR WT, phosphorylation at Tyr1068, 4 h
T2 construct: expressed in transfected cells; host or cells: human HEK cells (ATCC CRL-1573), retroviral transduction, puromycin selection
Procedure: This assay quantifies the phosphorylation of EGFR at Tyr1068 and was used to measure the inhibitory effect of compounds on the transgenic EGFR wild type (WT) protein expressed in HEK cells.
as §1, with “Transduced cells were selected using puromycin. p-EGFR Tyr1068 was determined using the AlphaScreen Surefire pEGF Receptor (Tyr1068) Assay (PerkinElmer, TGRERS). For” for “For”, “EGFR WT” for “HER2 YVMA”, “FBS.” for “FBS. 4 hours prior to compound addition, HER2 YVMA expression was induced using 1 μg/ml Doxycycline.”
This cellular phospho-EGFR (pEGFR) compound dose-response assay quantifies the phosphorylation of EGFR at Tyr1068 in HEK cells expressing EGFR WT. The results of the assay are provided as IC50 values.

[1] = test system: NCI-H2170 (HER2 wild type) cells; assay: Tumor cell proliferation assay NCI-H2170 (HER2 wild type); conditions: Homo sapiens, 72 h, CellTiter-Glo, read-out: GI50 NCI H-2170 HER2 wt amp.
Procedure: (§2) For proliferation assays, NCI-H2170 (HER2 wild type), NCI-H2170 HER2 YVMA and EGFR WT dependent A431 cells were used. NCI-H2170 HER2 YVMA or NCI-H2170 cells were seeded into 96-well plates at 750 cells/60 μL in growth media (RPMI ATCC+10% FBS, +Penicillin/Streptomycin). […] Compounds were added by using a HP D3000 Digital Dispenser one day after plating the cells. All treatments were performed in technical triplicates. Treated cells were incubated for 72 h at 37° C. with 5% CO2. CellTiter-Glo® Luminescent Cell Viability Assay (Promega) was performed and chemoluminescence was measured by using the multilabel Plate Reader VICTOR X4. The raw data were imported into and analyzed with the Boehringer Ingelheim proprietary software MegaLab (curve fitting based on the program PRISM, GraphPad Inc.).

[2] = test system: NCI-H2170 HER2 YVMA cells; assay: Tumor cell proliferation assay NCI-H2170 HER2 YVMA; conditions: Homo sapiens, 72 h, CellTiter-Glo, read-out: GI50 NCI H-2170 HER2 YVMA
From the text: HER2 YVMA tumor cell line model generation and proliferation assays
Homology-directed genome engineering was employed to insert a 12 nucleotide sequence encoding YVMA into Exon 20 of the genomic HER2 locus in NCI-H2170 cells. […] The DNA template containing the HER2 exon 20 YVMA insertion variant was obtained from GenScript. PCR followed by Sanger sequencing was used to confirm the presence of the 12-nucleotide insertion in HER2 Exon 20 resulting in the YVMA amino acid duplication.
as §2

[3] = test system: EGFR WT dependent A431 cells; assay: Tumor cell proliferation assay A431 (EGFR WT dependent); conditions: Homo sapiens, A-431; 72 h, CellTiter-Glo; read-out: GI50 A431 EGFR wt amp.
Procedure: as §2

Ba/F3 cells HER2 WT = assay: Ba/F3 proliferation assay HER2 WT; conditions: Mus musculus, BaF3; 72 h, CellTiter-Glo
Procedure: (§3) Ba/F3 cell model generation and proliferation assays
(§4) Plasmids containing HER2 mutants and EGFR WT were obtained from GeneScript. To generate EGFR/HER2-dependent Ba/F3 models, Ba/F3 cells were transduced with retroviruses containing vectors that harbor EGFR WT, HER2 WT or HER2 mutants (YVMA). Platinum-E cells (Cell Biolabs) were used for retrovirus packaging. Retrovirus was added to Ba/F3 cells. To ensure infection, 4 μg/mL polybrene was added and cells were spinfected. Infection efficiency was confirmed by measuring GFP-positive cells using a cell analyzer. Cells with an infection efficiency of 10% to 20% were further cultivated and puromycin selection with 1 μg/mL was initiated. As a control, parental Ba/F3 cells were used to assess the selection status. Selection was considered successful when parental Ba/F3 cells cultures died. To evaluate the transforming potential of HER2 mutations, the growth medium was no longer supplemented with IL-3. Ba/F3 cells harboring the empty vector were used as a control. A switch from IL-3 to EGF was performed for Ba/F3 cells with the EGFR WT known for its dependency on EGF ligand. Approximately ten days before conducting the experiments, puromycin was left out. For proliferation assays (data in table 12 and 14), Ba/F3 cells were seeded into 96-well plates at 5×10^3 cells/100 μL in growth media. Compounds were added by using a HP D3000 Digital Dispenser. All treatments were performed in technical triplicates. Treated cells were incubated for 72 h at 37° C. with 5% CO2. CellTiter-Glo® Luminescent Cell Viability Assay (Promega) was performed and chemoluminescence was measured by using the multilabel Plate Reader VICTOR X4. The raw data were imported into and analyzed with the Boehringer Ingelheim proprietary software MegaLab (curve fitting based on the program PRISM, GraphPad Inc.).

[4] = test system: Ba/F3 cells HER2 mutants (YVMA); assay: Ba/F3 proliferation assay HER2 YVMA; conditions: Mus musculus, BaF3; 72 h, CellTiter-Glo
Procedure: as §3, §4

Ba/F3 cells EGFR WT = assay: Ba/F3 proliferation assay EGFR WT (EGF dependent); conditions: Mus musculus, BaF3, EGF instead of IL-3, 72 h, CellTiter-Glo, read-out: GI50 BAF3 EGF dep.
Procedure: as §3, §4

T1 sequence (P04626 with tags, fused parts or gaps INS775YVMA): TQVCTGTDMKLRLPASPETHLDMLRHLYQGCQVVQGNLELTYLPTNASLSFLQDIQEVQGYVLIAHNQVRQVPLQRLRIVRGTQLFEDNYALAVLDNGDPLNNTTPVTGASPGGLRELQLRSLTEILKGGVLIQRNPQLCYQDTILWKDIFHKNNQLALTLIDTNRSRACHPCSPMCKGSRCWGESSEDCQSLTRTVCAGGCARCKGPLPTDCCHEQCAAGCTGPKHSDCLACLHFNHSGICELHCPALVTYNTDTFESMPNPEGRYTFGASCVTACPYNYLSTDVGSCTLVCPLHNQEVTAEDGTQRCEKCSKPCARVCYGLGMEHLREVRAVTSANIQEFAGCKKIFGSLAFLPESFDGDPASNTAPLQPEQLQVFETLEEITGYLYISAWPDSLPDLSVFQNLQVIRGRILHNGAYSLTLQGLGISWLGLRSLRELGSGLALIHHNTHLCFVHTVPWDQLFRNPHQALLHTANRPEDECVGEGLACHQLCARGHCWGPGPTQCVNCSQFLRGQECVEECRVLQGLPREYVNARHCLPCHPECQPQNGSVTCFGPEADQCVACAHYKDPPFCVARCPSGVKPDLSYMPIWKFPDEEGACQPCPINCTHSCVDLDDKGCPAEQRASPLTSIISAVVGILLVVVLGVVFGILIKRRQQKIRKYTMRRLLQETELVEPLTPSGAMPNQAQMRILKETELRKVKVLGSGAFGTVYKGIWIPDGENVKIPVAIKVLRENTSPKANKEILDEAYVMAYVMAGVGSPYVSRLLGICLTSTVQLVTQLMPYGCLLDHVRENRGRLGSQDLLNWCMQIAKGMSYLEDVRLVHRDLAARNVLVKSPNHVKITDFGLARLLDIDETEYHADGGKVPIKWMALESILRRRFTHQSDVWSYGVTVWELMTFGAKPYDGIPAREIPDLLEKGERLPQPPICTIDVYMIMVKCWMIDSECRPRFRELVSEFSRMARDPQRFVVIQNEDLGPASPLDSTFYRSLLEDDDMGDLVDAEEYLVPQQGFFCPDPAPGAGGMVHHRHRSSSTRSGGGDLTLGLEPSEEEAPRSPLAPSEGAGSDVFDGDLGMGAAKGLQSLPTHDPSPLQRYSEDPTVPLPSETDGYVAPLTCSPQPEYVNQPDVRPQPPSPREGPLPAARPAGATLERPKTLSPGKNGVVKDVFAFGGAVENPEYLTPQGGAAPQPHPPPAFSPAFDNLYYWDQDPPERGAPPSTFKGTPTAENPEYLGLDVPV
T2 sequence (P00533 25-1210): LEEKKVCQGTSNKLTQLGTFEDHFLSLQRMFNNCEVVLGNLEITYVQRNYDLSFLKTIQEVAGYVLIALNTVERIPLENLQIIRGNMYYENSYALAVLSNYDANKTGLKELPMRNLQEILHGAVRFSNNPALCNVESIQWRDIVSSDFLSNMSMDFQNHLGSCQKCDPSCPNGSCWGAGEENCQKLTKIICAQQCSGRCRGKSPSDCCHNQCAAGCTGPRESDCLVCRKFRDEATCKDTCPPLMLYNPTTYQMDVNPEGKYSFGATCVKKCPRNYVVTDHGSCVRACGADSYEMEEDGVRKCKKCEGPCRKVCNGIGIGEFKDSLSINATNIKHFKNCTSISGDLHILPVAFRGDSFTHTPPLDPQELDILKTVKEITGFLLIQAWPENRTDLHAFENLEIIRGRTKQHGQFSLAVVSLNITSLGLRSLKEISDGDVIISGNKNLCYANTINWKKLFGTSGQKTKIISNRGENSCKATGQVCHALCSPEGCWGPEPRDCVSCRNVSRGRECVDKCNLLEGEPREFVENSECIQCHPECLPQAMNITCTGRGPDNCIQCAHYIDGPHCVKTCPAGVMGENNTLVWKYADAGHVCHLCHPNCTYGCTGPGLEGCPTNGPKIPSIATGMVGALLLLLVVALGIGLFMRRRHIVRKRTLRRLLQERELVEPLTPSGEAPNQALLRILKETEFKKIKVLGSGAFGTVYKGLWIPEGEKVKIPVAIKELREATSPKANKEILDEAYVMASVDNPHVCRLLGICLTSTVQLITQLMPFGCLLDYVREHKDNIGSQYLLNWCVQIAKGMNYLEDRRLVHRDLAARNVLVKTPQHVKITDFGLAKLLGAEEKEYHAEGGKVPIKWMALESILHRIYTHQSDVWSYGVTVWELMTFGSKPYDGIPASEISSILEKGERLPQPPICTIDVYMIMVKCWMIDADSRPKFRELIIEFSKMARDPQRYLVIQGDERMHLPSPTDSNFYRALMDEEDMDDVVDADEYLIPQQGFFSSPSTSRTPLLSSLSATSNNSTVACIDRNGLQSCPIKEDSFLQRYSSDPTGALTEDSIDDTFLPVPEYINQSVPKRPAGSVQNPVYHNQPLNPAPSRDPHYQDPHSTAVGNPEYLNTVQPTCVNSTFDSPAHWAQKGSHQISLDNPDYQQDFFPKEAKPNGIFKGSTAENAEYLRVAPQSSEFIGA

SMILES: C=CC(=O)N1CCN(c2ncc3ncnc(Nc4ccc(Oc5ccc6c(c5)ncn6C)c(F)c4)c3n2)CC1 [Compound I-6]
- IC50 (HER2 YVMA): 19 nM
- IC50 (EGFR wild type (WT)): 1110 nM
- GI50 [1]: 26 nM
- GI50 [2]: 146 nM
- GI50 [3]: 2640 nM
- GI50 (Ba/F3 cells HER2 WT): 3 nM
- GI50 [4]: 27 nM
- GI50 (Ba/F3 cells EGFR WT): 1840 nM
